The values that follow come from patent publication US20080182895A1 (priority 2006, published 2008).

Structures are written as SMILES. “And” between values parts separate entries of the source, which are not always exact repeats. Equal entries are not always repeated. Where two headings read alike, the source gives them in different places.

Usually IC50 stands for the midpoint of a concentration-inhibition curve. A high value points to weaker potency in that assay. For orientation: EC50 means the concentration at which the effect is half-maximal.

Assay [1] addresses T1, HCV NS5B enzyme BB7-C316F (Hepatitis C virus genotype 1b, UniProt Q9WMX2, C2735F).
T1 construct: NS5B-BB7dCT21-His(C316F/S/Y/N); His (C); made in house; host or cells: E. coli
Kind of assay: NS5B polymerase biochemical assay. The procedure:
(§1) All NS5B enzymes were expressed and purified according to the protocol for NS5B-BB7dCT21-His as described (Howe et al. (2004) Antimicrobial Agents Chem. 48:4813-21). Briefly, expression plasmids were transformed into E. coli cells and NS5B expression was initiated by the addition of isopropyl-beta-D-thiogalactopyranoside (IPTG). After 4 to 6 hours of incubation the cells were harvested and lysed. NS5B enzymes were purified by chromatography using a nickel affinity column (Talon, B D Biosciences, Clontech Laboratories, Inc., Mountain View, Calif.)) followed by a cation exchange column (Poros H S, Applied Biosystems, Foster City, Calif.).

The target of assay [2] is T2, HCV NS5B enzyme BB7-C316Y (Hepatitis C virus genotype 1b, UniProt Q9WMX2, C2735Y).
T2 construct: To prepare expression plasmid NS5B-BB7dCT21-His(C316Y); His (C); made in house; host or cells: E. coli
T2 sequence (Q9WMX2 2420-2989 C2735Y): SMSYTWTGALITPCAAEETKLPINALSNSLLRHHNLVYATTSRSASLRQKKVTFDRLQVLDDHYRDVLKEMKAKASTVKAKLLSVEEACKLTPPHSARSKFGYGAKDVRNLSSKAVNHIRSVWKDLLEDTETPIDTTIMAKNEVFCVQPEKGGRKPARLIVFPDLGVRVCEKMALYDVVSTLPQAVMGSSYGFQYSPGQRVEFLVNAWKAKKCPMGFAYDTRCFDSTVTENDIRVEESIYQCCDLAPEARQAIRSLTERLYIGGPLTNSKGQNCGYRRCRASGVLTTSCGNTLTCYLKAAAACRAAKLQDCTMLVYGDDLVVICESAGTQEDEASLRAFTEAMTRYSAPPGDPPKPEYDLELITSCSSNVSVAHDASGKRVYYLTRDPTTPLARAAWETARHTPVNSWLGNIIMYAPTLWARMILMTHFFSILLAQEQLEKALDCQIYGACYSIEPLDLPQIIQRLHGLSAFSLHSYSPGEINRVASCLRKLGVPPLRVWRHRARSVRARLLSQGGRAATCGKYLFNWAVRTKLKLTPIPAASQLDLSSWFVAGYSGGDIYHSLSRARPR
Kind of assay: NS5B polymerase biochemical assay. As for the experimental part: as §1

Assay [3] has as its system HCV NS5B enzyme BB7-M414I. The experiment in a line: NS5B polymerase biochemical assay. The arrangement: species or system Hepatitis C virus genotype 1b. Particulars: BB7-M414I vs BB7 (C316). The procedure:
as §1

Assay [4] has as its target T3, HCV NS5B enzyme BB7-M414V (Hepatitis C virus genotype 1b, UniProt Q9WMX2, M2833V).
T3 construct: NS5B-BB7dCT21-His(M414T/V/I); His (C); made in house; host or cells: E. coli
The experiment in a line: NS5B polymerase biochemical assay. As for the experimental part:
as §1

Assay [5] has as its system HCV NS5B enzyme BB7-C316F. The experiment in a line: NS5B polymerase biochemical assay. Details: species or system Hepatitis C virus genotype 1b. The note with it: BB7-C316F vs BB7 (C316). As for the experimental part:
as §1

Assay [6] has as its target T4, HCV NS5B enzyme BB7-M414I (Hepatitis C virus genotype 1b, UniProt Q9WMX2, M2833I).
T4 construct: To prepare expression plasmid NS5B-BB7dCT21-His(M414I); His (C); made in house; host or cells: E. coli
The experiment in a line: NS5B polymerase biochemical assay. As for the experimental part:
as §1

Another assay addresses T5, HCV NS5B enzyme BK-N316C (Hepatitis C virus genotype 1b, UniProt P26663, N2735C).
T5 construct: the NS5B enzyme derived from the genotype 1b BK isolate; His (C); made in house; host or cells: E. coli
Kind of assay: NS5B polymerase biochemical assay. As for the experimental part:
as §1

Assay [7] deals with T6, HCV NS5B enzyme BB7-C316N (Hepatitis C virus genotype 1b, UniProt Q9WMX2, C2735N).
T6 construct: To prepare expression plasmid NS5B-BB7dCT21-His(C316N); His (C); made in house; host or cells: E. coli
T6 sequence (Q9WMX2 2420-2989 C2735N): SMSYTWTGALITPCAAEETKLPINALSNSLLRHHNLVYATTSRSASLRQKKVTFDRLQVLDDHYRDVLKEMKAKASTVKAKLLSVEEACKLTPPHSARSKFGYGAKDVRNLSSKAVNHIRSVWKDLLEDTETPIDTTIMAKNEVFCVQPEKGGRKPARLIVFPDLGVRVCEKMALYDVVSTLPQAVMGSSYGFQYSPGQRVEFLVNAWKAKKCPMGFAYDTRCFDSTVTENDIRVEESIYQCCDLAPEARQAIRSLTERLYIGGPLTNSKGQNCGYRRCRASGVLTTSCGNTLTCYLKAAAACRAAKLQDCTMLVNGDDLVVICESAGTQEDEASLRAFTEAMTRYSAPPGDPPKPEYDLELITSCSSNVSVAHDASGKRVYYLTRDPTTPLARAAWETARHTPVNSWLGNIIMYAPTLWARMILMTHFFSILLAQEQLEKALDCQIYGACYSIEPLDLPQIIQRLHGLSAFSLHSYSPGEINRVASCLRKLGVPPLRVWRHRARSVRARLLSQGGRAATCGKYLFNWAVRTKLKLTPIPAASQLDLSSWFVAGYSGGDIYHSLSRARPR
The experiment in a line: NS5B polymerase biochemical assay. The procedure:
as §1

Assay [8] has as its system HCV NS5B enzyme BB7-M414V. The experiment in a line: NS5B polymerase biochemical assay. Details: species or system Hepatitis C virus genotype 1b. Particulars: BB7-M414V vs BB7 (C316). The procedure:
as §1

Assay [9] addresses T7, HCV NS5B enzyme BK (N316) (Hepatitis C virus genotype 1b, UniProt P26663).
T7 construct: the NS5B enzyme derived from the genotype 1b BK isolate; His (C); made in house; host or cells: E. coli
The experiment in a line: NS5B polymerase biochemical assay. As for the experimental part:
as §1

Assay [10] relates to HCV NS5B enzyme BB7-C316N. Kind of assay: NS5B polymerase biochemical assay. Particulars: BB7-C316N vs BB7 (C316). The arrangement: species or system Hepatitis C virus genotype 1b. As for the experimental part:
as §1

Assay [11] deals with T8, HCV NS5B enzyme BB7-I363V (Hepatitis C virus genotype 1b, UniProt Q9WMX2, I2782V).
T8 construct: To prepare expression plasmid NS5B-BB7dCT21-His(1363V); His (C); made in house; host or cells: E. coli
T8 sequence (Q9WMX2 2420-2989 I2782V): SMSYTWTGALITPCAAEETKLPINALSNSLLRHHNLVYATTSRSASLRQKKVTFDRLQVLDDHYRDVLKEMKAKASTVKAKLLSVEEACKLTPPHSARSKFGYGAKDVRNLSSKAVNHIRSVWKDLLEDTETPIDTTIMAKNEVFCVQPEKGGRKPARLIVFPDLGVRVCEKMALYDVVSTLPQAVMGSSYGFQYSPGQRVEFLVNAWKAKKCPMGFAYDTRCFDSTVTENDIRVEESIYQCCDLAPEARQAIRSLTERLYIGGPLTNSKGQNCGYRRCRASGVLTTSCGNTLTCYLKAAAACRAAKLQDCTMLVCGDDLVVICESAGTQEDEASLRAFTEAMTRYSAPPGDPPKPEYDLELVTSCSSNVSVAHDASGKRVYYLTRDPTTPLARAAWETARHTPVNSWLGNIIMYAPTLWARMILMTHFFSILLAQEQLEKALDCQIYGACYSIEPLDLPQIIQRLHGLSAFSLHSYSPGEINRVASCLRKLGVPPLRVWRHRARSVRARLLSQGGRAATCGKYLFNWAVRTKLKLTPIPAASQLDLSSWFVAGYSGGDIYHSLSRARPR
The experiment in a line: NS5B polymerase biochemical assay. As for the experimental part:
as §1

Assay [12] relates to HCV NS5B enzyme BB7-C316Y. The experiment in a line: NS5B polymerase biochemical assay. Details: species or system Hepatitis C virus genotype 1b. The note with it: BB7-C316Y vs BB7 (C316). As for the experimental part: as §1
Assay [13] concerns Clone A cells (HCV genotype 1b replicon in Huh-7). The experiment in a line: HCV replicon 3-day assay, HCV RNA by TaqMan RT-PCR. Type of assay: cell-based, Hepatitis C virus. The note with it: for EC50: Hepatitis C virus, Huh-7. The procedure: The level of HCV RNA from cultures was expressed as % HCV RNA relative to control. Each point represents an average of four replicates. The effective concentration that inhibits 50% of HCV RNA levels (EC50) in the replicon-containing cells is indicated.
The levels of HCV RNA were determined using a quantitative TAQMAN® RT-PCR (PE Applied Biosystems, Foster City, Calif.).
Drug susceptibility of the replicon-containing cells to various compounds was evaluated as described previously (Howe et al. (2004) Antimicrobial Agents Chem. 48:4813-21). Briefly, cells were treated with increasing concentrations of compounds in medium containing 2% FCS and no G418 for three days at 37° C. and 5% CO2. After incubation, total RNA from the replicon-containing cells was isolated. The levels of HCV, glyceraldehyde 3-phosphate dehydrogenase (GAPDH) and ribosomal (rRNA) RNAs were quantified using TAQMAN® (PE Applied Biosystems, Foster City, Calif.) reverse transcriptase PCR reactions. The amounts of HCV, 18S ribosomal, and GAPDH RNAs in each sample were estimated by comparing the number of cycles during the exponential phase of the PCR amplification with those in the corresponding standard curves. HCV RNA standards used for the construction of the standard curve were prepared by extracting the total RNA from the Clone A cells. The RNA sample was sent to National Genetics Institute to quantify HCV RNA. Total RNA extracted from Clone A cells was quantified by O.D.260 measurement and used for construction of the standard curves of rRNA and GAPDH. The concentrations of the compounds that inhibit 50% of the HCV RNA level (EC50) were determined using the MDL® LIFE SCIENCE WORKBENCH® (LSW) Data Analysis software (MDL Information Systems, San Leandro, Calif.) in Microsoft EXCEL®. The amounts of HCV or GAPDH RNAs in the samples were expressed as HCV RNA (copies) or GAPDH (ng), respectively, per μg of total RNA using rRNA as a marker for total RNA measurement.
Background: Replicon systems follow genome replication, usually without infectious particles.

T5 sequence (P26663 2420-2989 N2735C): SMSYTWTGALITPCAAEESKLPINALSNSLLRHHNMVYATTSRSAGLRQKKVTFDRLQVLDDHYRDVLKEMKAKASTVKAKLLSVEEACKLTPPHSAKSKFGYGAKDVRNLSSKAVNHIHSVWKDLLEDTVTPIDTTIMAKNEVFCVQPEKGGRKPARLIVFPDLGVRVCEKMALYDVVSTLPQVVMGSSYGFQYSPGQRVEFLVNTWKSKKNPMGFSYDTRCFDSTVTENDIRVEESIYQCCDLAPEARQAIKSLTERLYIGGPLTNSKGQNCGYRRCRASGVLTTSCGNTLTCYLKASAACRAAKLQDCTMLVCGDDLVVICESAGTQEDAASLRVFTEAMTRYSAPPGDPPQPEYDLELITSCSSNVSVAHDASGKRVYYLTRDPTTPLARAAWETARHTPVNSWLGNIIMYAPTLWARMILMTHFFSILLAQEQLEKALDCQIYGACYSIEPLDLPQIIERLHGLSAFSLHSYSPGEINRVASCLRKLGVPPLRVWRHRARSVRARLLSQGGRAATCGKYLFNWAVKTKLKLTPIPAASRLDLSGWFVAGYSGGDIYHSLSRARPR
T7 sequence (P26663 2420-2989): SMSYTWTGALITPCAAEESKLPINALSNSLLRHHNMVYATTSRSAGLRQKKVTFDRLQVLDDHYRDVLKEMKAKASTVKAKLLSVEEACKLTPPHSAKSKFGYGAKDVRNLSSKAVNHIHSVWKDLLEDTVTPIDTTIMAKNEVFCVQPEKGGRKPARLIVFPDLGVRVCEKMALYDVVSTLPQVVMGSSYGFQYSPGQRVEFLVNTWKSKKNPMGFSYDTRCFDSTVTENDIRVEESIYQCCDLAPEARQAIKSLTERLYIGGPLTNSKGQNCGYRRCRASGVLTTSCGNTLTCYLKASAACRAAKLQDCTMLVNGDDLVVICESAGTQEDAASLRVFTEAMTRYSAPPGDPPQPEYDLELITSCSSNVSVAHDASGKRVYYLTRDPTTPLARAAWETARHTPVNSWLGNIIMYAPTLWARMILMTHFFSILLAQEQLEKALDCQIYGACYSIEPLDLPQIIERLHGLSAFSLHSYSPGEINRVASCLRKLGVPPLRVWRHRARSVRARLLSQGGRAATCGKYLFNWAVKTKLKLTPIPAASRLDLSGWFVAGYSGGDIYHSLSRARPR
T1 sequence (Q9WMX2 2420-2989 C2735F): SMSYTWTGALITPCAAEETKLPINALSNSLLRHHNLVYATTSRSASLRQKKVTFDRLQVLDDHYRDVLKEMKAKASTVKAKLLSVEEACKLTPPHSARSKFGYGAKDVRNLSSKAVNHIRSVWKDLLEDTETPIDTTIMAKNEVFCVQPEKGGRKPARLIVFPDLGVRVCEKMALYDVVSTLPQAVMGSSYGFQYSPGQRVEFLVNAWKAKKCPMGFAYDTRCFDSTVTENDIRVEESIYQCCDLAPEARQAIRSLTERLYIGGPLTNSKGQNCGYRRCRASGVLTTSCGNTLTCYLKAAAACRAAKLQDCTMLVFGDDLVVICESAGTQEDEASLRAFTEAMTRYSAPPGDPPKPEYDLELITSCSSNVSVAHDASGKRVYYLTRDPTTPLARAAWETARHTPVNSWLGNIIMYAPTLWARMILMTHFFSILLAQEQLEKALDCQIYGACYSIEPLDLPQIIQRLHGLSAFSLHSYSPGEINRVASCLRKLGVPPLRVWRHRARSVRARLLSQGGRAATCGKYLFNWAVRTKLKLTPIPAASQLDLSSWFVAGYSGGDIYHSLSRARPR
T3 sequence (Q9WMX2 2420-2989 M2833V): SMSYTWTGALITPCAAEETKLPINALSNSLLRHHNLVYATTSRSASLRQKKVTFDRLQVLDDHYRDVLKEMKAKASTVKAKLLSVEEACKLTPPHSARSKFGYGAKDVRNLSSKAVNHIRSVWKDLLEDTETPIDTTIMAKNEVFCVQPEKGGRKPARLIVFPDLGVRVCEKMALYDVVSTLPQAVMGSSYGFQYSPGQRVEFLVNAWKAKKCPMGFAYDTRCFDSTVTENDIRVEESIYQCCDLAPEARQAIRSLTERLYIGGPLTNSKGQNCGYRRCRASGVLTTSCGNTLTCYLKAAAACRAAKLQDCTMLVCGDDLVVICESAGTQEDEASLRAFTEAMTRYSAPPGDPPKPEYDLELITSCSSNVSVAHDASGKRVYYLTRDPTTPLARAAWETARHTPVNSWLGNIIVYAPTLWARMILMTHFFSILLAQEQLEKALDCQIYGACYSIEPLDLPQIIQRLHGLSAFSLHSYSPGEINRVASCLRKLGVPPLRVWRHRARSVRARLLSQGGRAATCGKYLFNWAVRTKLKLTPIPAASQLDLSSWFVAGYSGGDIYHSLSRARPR
T4 sequence (Q9WMX2 2420-2989 M2833I): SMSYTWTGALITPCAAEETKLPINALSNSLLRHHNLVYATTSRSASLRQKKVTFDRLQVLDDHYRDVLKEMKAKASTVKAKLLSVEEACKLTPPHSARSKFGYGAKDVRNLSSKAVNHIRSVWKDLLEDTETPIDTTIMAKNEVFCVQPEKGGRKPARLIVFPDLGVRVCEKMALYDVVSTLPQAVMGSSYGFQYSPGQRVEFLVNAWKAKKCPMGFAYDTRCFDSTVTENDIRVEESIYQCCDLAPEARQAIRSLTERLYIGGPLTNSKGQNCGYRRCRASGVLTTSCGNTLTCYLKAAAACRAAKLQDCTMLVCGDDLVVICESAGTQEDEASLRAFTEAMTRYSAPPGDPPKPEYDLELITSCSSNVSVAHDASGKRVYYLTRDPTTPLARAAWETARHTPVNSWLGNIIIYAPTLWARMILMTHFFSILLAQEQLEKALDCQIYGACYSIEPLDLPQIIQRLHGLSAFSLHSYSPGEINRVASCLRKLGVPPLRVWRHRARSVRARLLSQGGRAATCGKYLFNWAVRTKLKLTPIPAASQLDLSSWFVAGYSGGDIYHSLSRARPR

As for `CNC(=O)c1c(-c2ccc(F)cc2)oc2cc(N(CCO)S(C)(=O)=O)c(C3CC3)cc12` [HCV-796, 5-cyclopropyl-2-(4-fluorophenyl)-6-[(2-hydroxyethyl)(methylsulfonyl)amino]-N-methyl-1-benzofuran-3-carboxamide], the IC50 was found to be 1510 ± 419 nM in assay [1]; 320 ± 10 nM in assay [2]; 28 ± 2 nM in assay [4]; 24 ± 6 nM in assay [6]; 31 ± 4 nM on HCV NS5B enzyme BK-N316C; 81 ± 42 nM in assay [7]. The IC50 in assay [9] stood at 140 ± 50 nM; in [11] (BB7-I363V enzyme), 60 ± 10 nM. Also, the “Susceptibility Relative to Wild type Enzyme” value is 1.7-fold more in [3]; 124-fold less in [5]; 4.5 fold more and 4.5-fold more on HCV NS5B enzyme BK-N316C (BK-N316C vs wild type BK (N316)); 1.4-fold more in assay [8]; 2-fold less in assay [10]; 1.5-fold less in [11] (BB7-I363V vs BB7 (C316)). In addition, the “Susceptibility Relative to Wild type Enzyme” value in assay [12] is 8-fold less. In [13] (CloneA cells, 0.7 μM compound, 3-day assay), the “Mean log10 Viral Reduction” value is 2.1 log10 and 2.1 ± 0.4 (0.7 μM) log10. The EC50 in assay [13] (CloneA cells, HCV RNA, 72 hours, read-out: EC50 (μM) ± SD) was 0.013 ± 0.013 µM; in assay [13] (hepatoma cells containing a subgenomic genotype 1b HCV replicon, read-out: EC50), 0.009 µM.
